Measurements taken from patent US20080253967A1, “Halo-Stilbene Derivatives And Their Use For Binding And Imaging Of Amyloid Plaques” (priority 2007, published 2008).
Several values for one entry are separate records, joined by “and”; a condition that tells them apart may be missing. Equal values may be shown once. Entries after “also recorded” stand apart in the source; their conditions may differ. Read-outs that look alike come from different tables or passages of the source.

Assays:
AD cortical homogenates = conditions: cited from earlier work
Aβ plaques = test: Film autoradiography of AD brain sections; type: binding, human; conditions: tracer concentrations, post-mortem AD brain sections
Experimental: (§1) Brain sections from a patient with AD were frozen in powdered dry ice and cut into 20 μm thick sections. The sections were incubated with ^123I-15 (200,000-250,000 cpm/200 μl) for 1 hour at room temperature. The sections were then dipped in saturated Li2CO3 in 40% EtOH (2×2 min. washes) and washed with 40% EtOH (1×2 min. wash) followed by rinsing with water for 30s. After drying, the ^123I-labeled sections were exposed to Kodak MR film overnight.
as §1, with “Brains” for “Brain”, “patients” for “a patient”, “^123I-1b-3” for “^123I-15”, “30 s.” for “30s.”

[1] = Organ distribution in normal mice after i.v. injection; type: in vivo; conditions: for % total counted / % total recovered / Biodistribution Brain / Biodistribution Brain (% dose/g in brain): normal male mice; for Brain penetration and clearance: normal mice
Experimental: While under isoflurane anesthesia, 0.15 ml of a 0.9% saline solution containing ^123I-15 (5-10 μCi) was injected directly into the tail vein of ICR mice (22-25 g, male). The mice (n=3 for each time point) were sacrificed, the organs of interest were removed, weighed, and assayed with an automatic gamma counter. The percentage dose per organ was calculated by a comparison of the tissue counts to suitably diluted aliquots of the injected material. Total activities of blood were calculated under the assumption that they were 7% of the total body weight. The % dose/g of samples was calculated by comparing the sample counts with the count of the diluted initial dose. […] Similar results were obtained in female mice.
While under isoflurane anesthesia, 0.15 ml of a 0.9% saline solution containing ^123I-1b-3 (5-10 μCi) was injected directly into the tail vein of ICR mice (22-25 g, male and female) The mice (n=3 for each time point per sex) were sacrificed, the organs of interest were removed, weighed, and assayed with an automatic gamma counter. The percentage dose per organ was calculated by a comparison of the tissue counts to suitably diluted aliquots of the injected material. Total activities of blood were calculated under the assumption that they were 7% of the total body weight. The % dose/g of samples was calculated by comparing the sample counts with the count of the diluted initial dose.

[2] = Partition coefficient 1-octanol/buffer; conditions: 1-octanol / 0.1 M phosphate buffer pH 7.4
Experimental: (§3) Partition coefficients were measured by mixing ^123I-15 with 3 g each of 1-octanol and buffer (0.1 M phosphate, pH 7.4) in a test tube. The test tube was vortexed for 3 min at room temperature, followed by centrifugation for 5 min. Two weighed samples (0.5 g each) from the 1-octanol and the buffer layer were counted in a well counter. The partition coefficient was determined by calculating the ratio of cpm/g of 1-octanol to that of the buffer. Samples from the 1-octanol layer were repartitioned until consistent partitions of coefficient values were obtained from the third partition. The measurement was done in triplicate and repeated three times.
(§4) The test tube was vortexed for 3 min at room temperature, followed by centrifugation for 5 min. Two weighed samples (0.5 g each) from the 1-octanol and the buffer layer were counted in a well counter. The partition coefficient was determined by calculating the ratio of cpm/g of 1-octanol to that of the buffer. Samples from the 1-octanol layer were repartitioned until consistent partitions of coefficient values were obtained from the third partition. The measurement was done in triplicate and repeated three times.

[3] = Estimate of human dosimetry extrapolated from mouse data; conditions: proposed 5 mCi human dose, extrapolation from mouse data
amyloid plaques [4] = target: T1, amyloid plaques (Homo sapiens, UniProt P05067); conditions: AD brain homogenates; other amyloid plaque ligands; read-out: Binding Affinity (Ki vs. ^125I-IMPY), published values; cited from earlier work
T1 sequence (P05067 672-711 limits assumed): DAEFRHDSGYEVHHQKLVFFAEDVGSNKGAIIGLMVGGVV

fibrillar Aβ aggregates = fibrillar Aβ aggregates (Homo sapiens, UniProt P05067); conditions: read-out: Inhibition constants (Ki) for binding to fibrillar Aβ aggregates; cited from earlier work
Chain of fibrillar Aβ aggregates (P05067 672-711 limits assumed): as above

amyloid plaques [5] = target: T1, amyloid plaques; test: Inhibition of ^125I-IMPY binding in AD brain homogenates; conditions: read-out: Binding Affinity (Ki vs. ^125I-IMPY)
Experimental: Thus, inhibition of ^125I-IMPY binding in human AD brain homogenates was taken as an assay for the potential of test compounds to bind to amyloid plaques.
Postmortem brain tissue was obtained and neuropathological diagnosis was confirmed in accordance with the NIA-Reagan Institute Consensus Group criteria. Homogenates were then prepared from dissected gray matter, pooled in phosphate buffered saline and aliquoted into 1-ml portions (100 mg wet tissue/ml), which could be stored at −70° C. for 3-6 months without loss of binding signal.
(§2) For the binding assays brain homogenates were incubated with ^125I-IMPY (0.04-0.06 nM diluted in phosphate buffered saline (PBS)) and test compound (10^−5-10^−10 M diluted in PBS containing 0.1% bovine serum albumin (BSA)). […] The bound and free radioactivity was separated by vacuum filtration followed by 2×3 ml washes of PBS. Filters containing the bound ^125I ligand were assayed in a gamma counter.
as §2, with “in PBS)” for “in phosphate buffered saline (PBS))”, “0.1% BSA).” for “0.1% bovine serum albumin (BSA)).”, “bound […],” for “bound ^125I”

[6] = tested on: 46 CNS and Cardiovascular receptor binding sites; test: Binding at CNS and Cardiovascular Receptors (panel of 46 sites); conditions: 1 μM; inhibition >50% considered significant
Experimental: A panel of 46 CNS and Cardiovascular receptor binding sites, including adenosine, adrenergic, benzodiazepine, bombesin, dopamine, GABA, melatonin, muscarinic, neurotensin, nicotininc acetylcholine, opiate, potassium channel, serotonin, sigma, and several transporter subtypes, was tested for binding of Compound 15. […] Inhibition of binding in excess of 50% by Compound 15 was considered potentially significant.

physchem = conditions: pH 7.4
Experimental: as §3, §4

## CNc1ccc(/C=C/c2ccc(O)cc2)cc1 [[^3H]SB-13]
AD cortical homogenates
  Kd: 2.4 ± 0.2 nM

## CNc1ccc(/C=C/c2ccc(OCCOCCOCCF)c([123I])c2)cc1 [^123I-1b-3]
Aβ plaques
  Labeling of Aβ plaques in AD brain sections: specifically labeled Aβ plaques; also recorded: colocalize with plaque staining by Congo Red
[1]; 2 min
  % total counted / % total recovered: 82.20 ± 6.38%
  Biodistribution Brain: 1.01 ± 0.16 % dose/organ
  Biodistribution Brain (% dose/g in brain): 2.0 % dose/g and 2.05 ± 0.41 % dose/g
[1]; 60 min
  % total counted / % total recovered: 83.26 ± 6.99%
  Biodistribution Brain: 0.26 ± 0.05 % dose/organ
  Biodistribution Brain (% dose/g in brain): 0.51 % dose/g and 0.51 ± 0.09 % dose/g
[1]; 120 min
  % total counted / % total recovered: 83.56 ± 6.29%
[1]; 180 min
  % total counted / % total recovered: 79.15 ± 6.31%
[1]
  Brain penetration and clearance: readily penetrates and is rapidly cleared from the brain
[2]
  Partition coefficient: 432
  logP: 2.63
[3]
  Estimated exposure of lower large intestine: approximately 4.04 rem
  Estimated exposure of upper large intestine: ~3.55 rem
  Estimated human effective dose (ED): 1.1 rem

## CC(=C(C#N)C#N)c1ccc2cc(N(C)CC[18F])ccc2c1 [FDDNP, 2-(1-{6-[(2-[^18F]fluoroethyl)(methyl)amino]-2-naphthyl}ethylidene)malononitrile]
Amyloid plaques [4]
  Ki: 239 nM

## O=C(O)c1cc(/N=N/c2ccc(-c3ccc(/N=N/c4ccc(O)c(C(=O)O)c4)cc3)cc2)ccc1O [CG, chrysamine-G]
Fibrillar Aβ aggregates
  Ki: 370 nM

## CNc1ccc(/C=C/c2ccc(OCCOCCOCCF)c(I)c2)cc1 [Compound 1b-3, (E)-4-(4-(2-(2-(2-fluoroethoxy)ethoxy)ethoxy)-3-iodostyryl)-N-methylbenzenamine]
Amyloid plaques [5]
  Ki: 9 ± 1.8 nM
[6]
  Selectivity (binding to CNS/CV receptors): No high affinity binding to any CNS receptors
[1]; 2 min
  Biodistribution Brain (% dose/g in brain): 2.0 ± 0.4 % dose/g
[1]; 60 min
  Biodistribution Brain (% dose/g in brain): 0.51 ± 0.09 % dose/g

## CNc1ccc(/C=C/c2ccc(OCCOCCOCCF)cc2)cc1 [Compound 3, (E)-4-(2-(6-(2-(2-(2-fluoroethoxy)ethoxy)ethoxy)phenyl)-vinyl)-N-methylbenzamine, reference compound]
Amyloid plaques [5]
  Ki: 6.7 ± 0.3 nM
[6]
  Selectivity (binding to CNS/CV receptors): No high affinity binding to any CNS receptors
[1]; 2 min
  Biodistribution Brain (% dose/g in brain): 4.8 ± 0.2 % dose/g
[1]; 60 min
  Biodistribution Brain (% dose/g in brain): 1.5 ± 0.2 % dose/g

## CNc1ccc(/C=C/c2cc([123I])cc(OCCO)c2)cc1 [^123I-15]
Aβ plaques
  Labeling of Aβ plaques in AD brain sections: specifically labeled Aβ plaques
[1]; 2 min
  % total counted / % total recovered: 86.65 ± 1.34%
  Biodistribution Brain: 1.49 ± 0.12 % dose/organ
  Biodistribution Brain (% dose/g in brain): 3.4 % dose/g and 3.40 ± 0.31 % dose/g
[1]; 60 min
  % total counted / % total recovered: 87.53 ± 4.57%
  Biodistribution Brain: 0.21 ± 0.01 % dose/organ
  Biodistribution Brain (% dose/g in brain): 0.43 % dose/g and 0.43 ± 0.05 % dose/g
[1]; 120 min
  % total counted / % total recovered: 79.41 ± 5.56%
[1]; 180 min
  % total counted / % total recovered: 79.46 ± 5.15%
[1]
  Brain penetration and clearance: readily penetrates and is rapidly cleared from the brain
other
  Estimated human effective dose (ED): approximately 1.1 rem
physchem
  logD: 2.4
  logP: 2.39
